Results from patent publication US20180021270A1, “METHODS FOR THE TREATMENT OF CANCER USING COENZYME Q10 IN COMBINATION WITH IMMUNE CHECKPOINT MODULATORS” (Berg LLC, priority 2016, published 2018).

Legend:
[1] = tested on: PD-1 on CD3 positive T cells within Balb/c PBMCs; assay: PD-1 surface expression on murine CD3 positive T cells; format: cell-based, mouse; settings: 0-800 μM, 24 hours, mean fluorescence intensity
Description: PD-1 surface expression on CD3 positive T cells within PHA stimulated or unstimulated Balb/c PBMCs was also evaluated. Cells were treated with Coenzyme Q10 (0, 12.5, 50, 200, 400 or 800 μM) for 24 hours and PD-1 expression was determined by gating live CD3 positive T cells. Mean fluorescence intensity values were evaluated in histogram plots for PD-1. Two experiments using two different pools of Balb/c PBMCs and one experiment using C57B1/6 PBMCs were conducted.

[2] = tested on: breast (MDA-MB231), prostate (LnCAP), ovarian (SKOV-3), colon (HT29), lung (A549), liver (Huh-7), and pancreatic (MIA PaCa-2) cancer cells; assay: mRNA expression of PD1, PD-L1 and PD-L2 in cancer cells treated with Coenzyme Q10 (other treatment groups); format: cell-based, human; settings: 50 μM, 100 μM or IC50 of Coenzyme Q10; all groups other than PD-L1 in HT29 at 50 μM
Description: Levels of mRNA expression of the immune checkpoints PD1, PD-L1 and PD-L2 were determined in human breast (MDA-MB231), prostate (LnCAP), ovarian (SKOV-3), colon (HT29), lung (A549), liver (Huh-7), and pancreatic (MIA PaCa-2) cancer cells treated with 50 μM Coenzyme Q10, 100 μM Coenzyme Q10, or the IC50 of Coenzyme Q10 for each cell line.

PD-1 = assay: Inhibitory receptor surface expression on T cells within PBMCs; format: cell-based, human; settings: PHA-stimulated T cells, 24 hours, dose dependent
Description: (§1) Expression of the inhibitory receptor proteins PD-1 and CTLA-4 on the surface of T cells within PBMCs was also determined. The cells were treated with Coenzyme Q10 for 24 hours. Expression of immune checkpoint receptors was measured by staining cells with phenotypic markers for CD3/CD8, or CD3/CD4 in combination with antibodies against PD-1 or CTLA-4. Live cells were identified as 7 AAD negative lymphocytes followed by T cell phenotype characterization of total CD3+ T cells, cytotoxic T cells, or helper T cells. PD-1 or CTLA-4 cell surface expression was measured as mean fluorescence intensity on live T cells. Cells from three donors were tested. As shown in FIGS. 20A and 20B, Coenzyme Q10 decreased PD-1 and CTLA-4 expression on the surface of PHA-stimulated T cells in a dose dependent manner.

CTLA-4 = assay: as above; format: cell-based, human; settings: PHA-stimulated T cells, 24 hours, dose dependent
Description: as §1

[3] = Body weight of C57BL/6 mice with Pan02 tumors; format: in vivo, mouse; settings: 25, 50 or 100 mg/kg i.p. twice per day for 21 days
Description: The body weight of C57BL/6 mice implanted with murine Pan02 pancreatic cancer cells and treated with Coenzyme Q10 was also evaluated. Tumors with mean volume of 100 mm^3 were treated twice per day with vehicle control or Coenzyme Q10 at 25, 50 or 100 mg/kg administered intraperitoneally for 21 days. Body weight was measured every two days for the first 5 days, and then twice per week.

IL-2 = assay: Cytokine ELISA in PBMC supernatants; format: cell-based, human; settings: during PHA activation, various concentrations of Coenzyme Q10
Description: Cytokines were measured in the PBMCs according to the manufacturer's protocol for R&D Quantikine ELISA kits (R&D Systems, Inc., Minneapolis, Minn.) specific to each cytokine. PBMCs were collected from 3 donors (D003F, D004F and D005F).

[4] = tested on: PD-L1 protein on the surface of pancreatic cancer cells (MIA PaCa-2); assay: Flow cytometry of PD-L1 protein on the cancer cell surface; format: cell-based, human; settings: MIA PaCa-2, 72 hours after treatment
Description: (§2) Flow cytometry analysis with a fluorescent probe for PD-L1 was used to determine the expression of PD-L1 protein on the surface of various human cancer cell lines. The cells were treated with 100 μM Coenzyme Q10, or the IC50 of Coenzyme Q10 for each cell line. […] The increased PD-L1 levels observed in breast cancer cells in response to Coenzyme Q10 treatment were not due to changes in cell populations.
(§3) Human pancreatic (MIA PaCa-2), ovarian (SKOV-3), and lung (A549) cancer cell lines treated with Coenzyme Q10 were also analyzed by flow cytometry to determine PD-L1 protein expression on the cancer cell surface.

[5] = tested on: PD-L1 protein on the surface of lung cancer cells (A549); assay: as above; format: cell-based, human; settings: A549, 72 hours after treatment
Description: as §2, §3

[6] = tested on: PD-L1 protein on the surface of ovarian cancer cells (SKOV-3); assay: as above; format: cell-based, human; settings: SKOV-3, 72 hours after treatment
Description: as §2, §3

[7] = tested on: T cell surface proteins in buffy coat; assay: Proteomic analysis of buffy coat samples from cancer patients administered Coenzyme Q10; format: in vivo, human; settings: patients with solid tumors, intravenous 4% Coenzyme Q10 nanosuspension; start vs end of treatment
Description: The ability of Coenzyme Q10 to modulate immune function in cancer patients was investigated by characterizing the molecular signature in buffy coats of patients administered Coenzyme Q10 for the treatment of solid tumors. A sterile Coenzyme Q10 (Ubidecarenone, USP) nanosuspension was administered intravenously to patients with solid tumors. Coenzyme Q10 was evaluated both as a monotherapy and in combination with standard chemotherapeutic agents (e.g. gemcitabine, 5-fluorouracil and docetaxel). The Coenzyme Q10 was provided as a 4% coenzyme Q10 nanosuspension formulation as described in WO 2011/112900, the entire contents of which are expressly incorporated herein by reference.
The effect of Coenzyme Q10 treatments on protein expression in immune cells within the buffy coat was evaluated. Furthermore, it was determined whether the proteins identified were known to be on the surface of T cells. To complete this analysis, buffy coat samples were subjected to shot gun global proteomic analysis, and a comprehensive list of proteins were generated for samples obtained from 25 patients being treated for solid tumors with Coenzyme Q10 as described above.
For proteomic analysis, data from two publically available T cell proteomic studies were combined. See Graessel A. et al., 2015, Molecular and Cellular Proteomics 14: 2085-2102; and Loyet K. M. et al., 2005, Proteome Research 4: 400, the entire contents of each of which are expressly incorporated herein by reference. Both studies defined the set of proteins on the surface of naïve and activated T cells to generate a working list of proteins potentially found on the T cell surface. This list (>600 proteins) was compared to the total proteome of the buffy coat (>2000 proteins) from twenty-five patients treated with Coenzyme Q10 as monotherapy.
A total of 62 common proteins shared between T cell surface proteome and the buffy coat proteome were identified. The relative change in protein levels (on the y-axis) represents the slope of the line derived from the linear regression of the level of each protein at the start of Coenzyme Q10 treatment versus the level at the end of Coenzyme Q10 treatment. FIG. 1 provides a schematic of the plot slope of linear regression representing the change in protein expression over time.

## COC1=C(OC)C(=O)C(C/C=C(\C)CC/C=C(\C)CC/C=C(\C)CC/C=C(\C)CC/C=C(\C)CC/C=C(\C)CC/C=C(\C)CC/C=C(\C)CC/C=C(\C)CCC=C(C)C)=C(C)C1=O [Coenzyme Q10]
[1]
  PD-1 expression of PD-1 negative gated CD3+ T cells: does not affect
  PD-1 levels on PD-1 high expressing gated CD3+ T cells: increased
[2]
  PD1, PD-L1 and PD-L2 mRNA expression, other treatment groups: no significant differences
PD-1
  PD-1 expression on the surface of T cells (mean fluorescence intensity): decreased
CTLA-4
  CTLA-4 expression on the surface of T cells (mean fluorescence intensity): decreased
[3]
  Effect on body weight: no significant effect
IL-2
  IL-2 level in supernatant: increased
[4]
  Amount of PD-L1 protein on the cell surface: significantly increased
  Percentage of cells having PD-L1 protein on their surface: significantly increased
[5]
  Amount of PD-L1 on the cell surface: did not significantly change
  Percentage of cells having PD-L1 protein on their surface: did not significantly change
[6]
  Amount of PD-L1 protein on the cell surface: small but significant increase
  Percentage of cells having PD-L1 protein on their surface: did not significantly change
[7]
  Expression of CD8B in buffy coat: downregulated
  Expression of CD247 in buffy coat: downregulated
  Expression of CFL1 in buffy coat: upregulated
  Expression of S100A8 in buffy coat: upregulated
